Source: patent US20050107289A1, “Anti-microbial peptides and compositions” (priority 2001, published 2005)
Where two headings read alike, the source gives them in different places. Non-standard residues stand in square brackets, D forms with d. Residues, ends and D or L forms follow the SMILES beside them.

What was measured:
[1] = system: S. aureus (MRSA) ATCC 33591; type: cell-based, Staphylococcus aureus; conditions: for MRSA (in vitro activity): Table 9
Summary of the method: (§1)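 Overnight bacterial cultures, diluted 4000 times to roughly 2.5×10^5 cfu/ml, are added to 2-fold peptide dilution series. Peptide series span approximately 400-2 μg/ml as prepared in DMSO/aqueous sucrose, before mixing with inoculum. Testing follows NCCLS M7-A4 broth dilution, chiefly the microdilution format.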

murine red blood cells [2] = assay: Red blood cell hemolysis; type: cell-based, mouse; set-up: RBC Hemolysis (HD50): unit not given here
Summary of the method: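 Hemolysis read as A560 of supernatant, scaled between saline (0%) and 1% Triton X-100 (100%) controls; peptides were serially diluted onto 5% murine red cells in saline plus 10% FBS and incubated 30 min at 37° C.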

[3] = system: vancomycin-resistant Enterococus faecalis (VRE)(ATCC 51575); type: cell-based, Enterococcus faecalis; set-up: key to VRE (in vitro activity): peptide concentration in μg/ml (broth dilution assay); conditions: for VRE (in vitro activity): Table 9
Summary of the method: as §1

[4] = system: S. aureus (MRSA) (ATCC No. 33591); assay: Time-killing curve, S. aureus MRSA ATCC 33591; type: cell-based, Staphylococcus aureus; conditions: FIG. 8a; at MIC concentrations
Description: (§2) The speed at which several of the cyclic peptides of the invention kill E. coli JM 109 (DE3), Enterococcus faecium SP 180 and S. aureus (MRSA) (ATCC No. 33591 and 33592) was further tested at room temperature and/or at 37° C. A lower temperature tends to enrich the bacterial cultures for mature bacteria because the bacteria are not growing quickly. […] The presence or absence of immature bacteria in the culture may influence the rate at which the bacteria are killed, because immature bacteria tend to be more susceptible to many forms of antibiotics.
To generate the data shown in FIG. 8a, the log of the number of colony forming units (cfu) per ml of culture was determined as a function of time after treatment of S. aureus (MRSA) (ATCC No. 33591) with cyclo[KHLWLW] (closed circles), cyclo[KRKWLWLW] (closed triangles), and cyclo[KQRWLWLW] (open squares) at MIC concentrations. […] The reduction in cfu count was greater than 3 log units. Cyclic peptide cyclo[KHLWLW] killed effectively all S. aureus (MRSA) within about 60 minutes.

[5] = system: Bacillus cereus ATCC 11778; type: cell-based
Summary of the method: as §1

[6] = system: Streptococcus pneumoniae (ATCC 6301); type: cell-based
Summary of the method: as §1

[7] = trypsin, α-chymotrypsin, subtilisin, blood plasma; RP-HPLC over 24 h
Description: Cyclic peptides having SEQ ID NO:13, 18, 26, and 29 were assayed for proteolytic susceptibility.

Toxicity studies in mice = type: in vivo; set-up: LD50(IP) / LD50(IV): unit not given here
Description: Peptides were tested for toxicity in vivo using procedures similar to those described previously. […] Mice (male Balb-C) in groups of 4-8 were given via IV, IP or SQ single bolucdoses of peptides and monitored for 14 days. Toxicity of sublethal doses was assessed based on the behavior and appearance of the mice after peptide administration compared to control mice receiving only vehicle. Signs of acute toxicity included lack of activity, red feet and tail, faster breathing. Death was defined as the end point for lethal doses of peptides.
Toxicology Studies: Initial toxicology studies in mice were conducted to evaluate various routes of drug administration, maximum tolerable dose, and blood and tissue toxicity. Two mice in each dose study were injected with a bolus intravenous (IV), intraperitoneal (IP), or subcutaneous (SQ) doses of peptide SEQ ID NO:8, 18, and 26. For each study, two control animals received vehicle only and no peptide. […] Signs of acute toxicity included any one of the following: lack of activity, red feet and tail, or faster breathing. […] A regimen of […] of peptide SEQ ID NO:18 for three consecutive days was administered to two mice IP and two mice SQ.

[8] = system: S. aureus MRSA (ATCC 33591); assay: Mouse peritonitis model, MRSA protection; type: in vivo, mice; set-up: PD50 MRSA: unit not given here
Description: Bacteria were prepared for in vivo using procedures similar to those as previously described. […] S. aureus MRSA bacteria (ATCC 33591) were grown at 37° C. in 5 mL of Antibiotic Medium-3 (AM-3, Difco Laboratories) with agitation for 12 hours to a stationary phase. Cells were collected by centrifugation, washed twice with saline solution and resuspended in about 10 mL of saline to an O.D.650 of 1.2. This suspension was diluted ten times in a sterilized 5% mucin (Difco) in saline to a concentration of 2-4×10^7 cfu/ml (actual inoculum size was verified by colony counts on agar plates).
Peptides of the invention were tested in mice to ascertain whether they would protect the mice against bacterial infection using procedures similar to those described in N. Frimodt-Moller et al., The Mouse Peritonitis/Sepsis Model, in Zak et al. (eds.) HANDBOOK OF ANIMAL MODELS OF INFECTION 127-37 (Academic Press 1999).
Male Balb-C mice (6 weeks old, approximately 20 g) were used in the study. Staphylococcus aureus MRSA bacteria (ATCC 33591) were grown at 37° C. with agitation for 12 hours to a stationary phase. Cells were collected by centrifugation, washed twice with saline and resuspended to an O.D.650 of 1.4. This suspension was diluted ten times with saline and resuspended to a concentration of 3-5×10^7 cfu/ml. For each peptide five groups of eight mice per group were infected I.P. with 0.5 ml of the above Staphylococcus aureus MRSA preparation (lethal dose). Forty-five minutes to an hour after infection, each group was treated with a different dose of peptide and a control group received vehicle only. Mice were monitored for fourteen days; death was defined as the end point. Median protecting doses (PD50) were calculated following the Reed and Muench method. […] For IV and SQ models peptide was administered immediately after IP infection.

E. coli JM109(DE3) = type: cell-based, Escherichia coli; conditions: JM109
Summary of the method: as §1

E. coli JM109 (DE3) = assay: Time-killing curve, E. coli; type: cell-based, Escherichia coli; conditions: FIG. 8b; at MIC concentrations
Description: as §2
In FIG. 8b, the log of the number of E. coli colony forming units (cfu) per ml of culture is plotted versus time treated with cyclo[KRKWLWLW] (closed triangles), cyclo[KQRWLWLW] (closed circles), cyclo[KHLWLW] (closed squares), and cyclo[KKWLW] (open squares) at MIC concentrations. […] Cyclic peptide cyclo[KHKLWLW] kills effectively all E. coli within about 90 minutes. Cyclic peptides cyclo[KRKWLWLW] and cyclo[KKWLW] kill effectively all of the E. coli within about 130 minutes. […] Nonetheless, these cyclic peptides kill both types of bacteria very quickly.

murine red blood cells [9] = conditions: cited from earlier work
[10] = Proton transport in vesicles with pH gradient; conditions: vesicles pH 6.5 inside, pH 5.5 outside
Description: Formation of supramolecular structures that can permeabilize membranes was also inferred from proton transport activity. Vesicles were prepared having pH 6.5 inside and pH 5.5 in the outside bulk solution. The collapse of the imposed pH gradient in these vesicles, upon formation of the putative transmembrane channel structure, was studied by monitoring the fluorescence intensity of an entrapped pH-sensitive dye. (V. E. Carmichael et al, in J.Am. Chem. Soc. (1989), vol. 111, pages 767-769). Addition of peptide cyclo[-(Trp-D-Leu)3-Gln-D-Leu-]
Unilamellar vesicles were prepared by the reverse-phase evaporation using DPPC, OPPC, cholesterol in the ratio of 1:1:2 in a solution containing 5(6)-carboxyfluorescein (20 mM in phosphate/saline buffer: 137 mM NaCl, 2.6 mM KCI, 6.4 mM Na2HPO4, 1.4 mM KH2PO4, pH 6.5) according to the method of F. Szoka et al. in Proc. Natl. Acad. Sci. USA (1978), vol. 75, pages 4194-4198. Liposomes were then sized by multiple extrusions through Nucleopore® polycarbonate membranes (10 times, 50 psi, using 0.8 and 2×0.4 micron filter stacks) and the untrapped 5(6)-carboxyfluorescein was removed by size exclusion chromatography (Sephadex G-25 column 1×30 cm) using the same phosphate/saline buffer according to the method of F. Olson et al. in Biochim. […] Vesicles formed in this way are approximately 150 nanometer in diameter as determined by electron microscopy. […] In each experiment, […] of the stock vesicle solution (3.5×10^−3 M in phospholipids) was added to pH 5.5 buffer (1.3 ml, 137 mM NaCl, 2.6 mM KCl, 6.4 Na2HPO4, 1.4 KH2PO4) and placed in a 1 cm quartz cuvette inside a stirring thermojacketed sample holder of the fluorescence instrument and equilibrated at 25° C. for 15 minutes with gentle stirring. To the cuvette, through an injector port, […] of the peptide dissolved in DMSO was added with continuous fluorescence monitoring at 520 nm (excitation at 470 nm). The observed data were then normalized for comparison into the fractional change in fluorescence ((I0-It)/(I0-I∞)) (V. E. Carmichael et al, in J.Am. Chem. Soc. (1989), vol. 111, pages 767-769)).

[11] = media a: anti-microbial media-3 (AM-3)

Row | Molecule | MRSA MIC ([1]; ATCC 33591) | S. aureus (MRSA) MIC ([1]; ATCC 33591) | MRSA (in vitro activity) [1, 11] | RBC Hemolysis (HD50) (murine red blood cells [2]) | VRE MIC ([3]; ATCC 51575) | VRE (in vitro activity) ([3]; media a: AM-3) | B. cerius MIC [5] | S. pneum. MIC [6] | proton / ion transport activity [10] | further results
1 | CC(C)C[C@H]1NC(=O)[C@H](Cc2c[nH]c3ccccc23)NC(=O)[C@@H](CCCCN)NC(=O)[C@H](CCCNC(=N)N)NC(=O)[C@@H](CCCCN)NC(=O)[C@H](Cc2c[nH]c3ccccc23)NC(=O)[C@@H](CC(C)C)NC(=O)[C@H](Cc2c[nH]c3ccccc23)NC1=O [SEQ ID NO:19, D-Lys-Arg-D-Lys-Trp-D-Leu-Trp-D-Leu-Trp] (cyclo([dK]R[dK]W[dL]W[dL]W)) | 15 µg/mL | 10 µg/mL | 15 | 50 | 8 µg/mL | 8 | 3 µg/mL | 5 µg/mL |  | time to kill effectively all S. aureus (MRSA) [4]: within about five minutes
2 | CC(C)C[C@H]1NC(=O)[C@H](CCCCN)NC(=O)[C@@H](CCCCN)NC(=O)[C@H](Cc2c[nH]c3ccccc23)NC(=O)[C@@H](CC(C)C)NC(=O)[C@H](Cc2c[nH]c3ccccc23)NC1=O [SEQ ID NO:26, cyclo-(D-Lys-Lys-D-Leu-Trp-D-Leu-Trp)] (cyclo(K[dL]W[dL]W[dK])) | 10 µg/mL | 10 µg/mL | 10 | 80 | 40 µg/mL | 40 | > 10 µg/mL | 30 µg/mL |  | proteolytic stability [7]: stable; LD50(IP) (Toxicity studies in mice; Table 12, male Balb-C mice): 75; LD50(IV) (Toxicity studies in mice; Table 12, male Balb-C mice): 24; LD50 at 14 days (Toxicity studies in mice; male, Balb-C, mouse, in vivo, ip, Table 13): 75 mg/kg; signs at highest dose (Toxicity studies in mice; mice, IP 50 mg/kg): signs of acute toxicity that were not observable after one hour; tolerability (Toxicity studies in mice; mice, IP, maximum tested dose 50 mg/kg): tolerated up to the maximum tested IP dose; In Vitro MRSA MIC ([1]; ATCC 33591): 10 µg/mL; In Vitro RBC MIC (murine red blood cells [2]): 80 µg/mL; In Vitro VREF MIC ([3]; ATCC 51575): 40 µg/mL; PD50 S. aureus MRSA infection [8]: 15 mg/kg; PD50 protective dose where 50% of animals survive ([8]; FIG. 6, mice challenged with lethal doses of MRSA): 10 ± 2 mg/kg; PD50 MRSA ([8]; Table 12, male Balb-C mice, IP infection, IP peptide): 15; In Vivo MRSA PD50 ([8]; Table 13): 15 mg/kg; protection of mice from MRSA infection ([8]; single bolus IP dose of appropriate amount, 45-60 min after infection): completely protect; E. coli MIC (E. coli JM109(DE3)): 17 µg/mL
3 | CC(C)C[C@H]1NC(=O)[C@H](Cc2c[nH]cn2)NC(=O)[C@@H](CCCCN)NC(=O)[C@H](Cc2c[nH]c3ccccc23)NC(=O)[C@@H](CC(C)C)NC(=O)[C@H](Cc2c[nH]c3ccccc23)NC1=O [SEQ ID NO:27, cyclo-(D-Lys-His-D-Leu-Trp-D-Leu-Trp)] (cyclo(H[dL]W[dL]W[dK])) | 10 µg/mL | 10 µg/mL | 10 | 25 | 40 µg/mL | 40 | 5 µg/mL | 5 µg/mL |  | time to kill effectively all S. aureus (MRSA) [4]: ≤ 60 min; time to kill effectively all E. coli (E. coli JM109 (DE3)): ≤ 90 min; E. coli MIC (E. coli JM109(DE3)): 100 µg/mL
4 | MELLITIN [linear peptide that is hemolytic against mammalian red blood cells, reference compound] |  |  |  |  |  |  |  |  |  | MRSA (in vitro activity) ([1]; media b: cation adjusted Meuller Hinton broth (MHBII)): 6.3; RBC Hemolysis (HD50) (murine red blood cells [2]; Table 9): 10; VRE (in vitro activity) ([3]; media c: Brain Heart Infusion (BHI)): 6.3; hemolytic concentration against mammalian red blood cells in vitro (murine red blood cells [9]): about 10 μg/ml
5 | cyclo[-(Gln-D-Leu)4] |  |  |  |  |  |  |  |  | does not display any ion transport activity | 
6 | cyclo[-(Trp-D-Leu)3-Gln-D-Leu-] [SEQ ID NO:2] |  |  |  |  |  |  |  |  | rapid collapse of the pH gradient | 
7 | cyclo[-(^MeN-D-Ala-Phe)4-] |  |  |  |  |  |  |  |  | does not promote proton transport activity | 
